Results reported in paper PMC5349910, “Discovery of BPR1K871, a quinazoline based, multi-kinase inhibitor for the treatment of AML and solid tumors: Rational design, synthesis, in vitro and in vivo evaluation” (Oncotarget, 2016).
Values after ≈ are worked out from the molar mass of the structure shown. “Also recorded” adds a separate entry of the source.

Legend:
[1] = Microsomal stability assay, human; format: in vitro ADME
HCC827 cells = assay: Anti-proliferative activity, HCC827; format: cell-based; conditions: Homo sapiens, HCC827; NSCLC-EGFR L858R; supplement values ± SEM; read-out: HCC827 EC50
AURKA = target: T1, AURKA (Homo sapiens, UniProt O14965); assay: AURKA inhibition assay (Kinase-Glo); format: biochemical; conditions: mean of at least two independent experiments, within ±15%
T1 construct: recombinant GST-AURKA (residues Ser123-Ser401) containing the kinase domain; GST (N); made in house; host or cells: Sf9 insect cells
T1 sequence (O14965 123-401): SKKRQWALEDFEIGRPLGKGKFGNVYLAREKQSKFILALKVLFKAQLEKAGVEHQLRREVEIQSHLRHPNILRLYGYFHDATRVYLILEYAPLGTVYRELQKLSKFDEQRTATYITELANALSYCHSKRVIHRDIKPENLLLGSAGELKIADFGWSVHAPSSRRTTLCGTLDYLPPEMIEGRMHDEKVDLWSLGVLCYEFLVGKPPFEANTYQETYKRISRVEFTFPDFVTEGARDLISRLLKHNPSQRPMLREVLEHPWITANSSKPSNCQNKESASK
Protocol: AURKA assay was conducted as previously described. Briefly, the recombinant GST-AURKA (residues Ser123-Ser401) containing the kinase domain was expressed in Sf9 insect cells.
Following incubation, 50 μL Kinase-Glo Plus Reagent (Promega, Madison, WI, USA) was added, and the mixture was incubated at 25°C for 20 min.

FLT3 = target: T2, FLT3 (Homo sapiens, UniProt P36888); assay: FLT3 kinase inhibition assay (Kinase-Glo); format: biochemical; conditions: mean of at least two independent experiments, within ±15%
T2 construct: FLT3 kinase catalytic domain (residues Tyr567-Ser993); made in house; host or cells: Sf9 insect cells (baculovirus, pBac-PAK8-GST-FLT3-KD)
T2 sequence (P36888 567-993): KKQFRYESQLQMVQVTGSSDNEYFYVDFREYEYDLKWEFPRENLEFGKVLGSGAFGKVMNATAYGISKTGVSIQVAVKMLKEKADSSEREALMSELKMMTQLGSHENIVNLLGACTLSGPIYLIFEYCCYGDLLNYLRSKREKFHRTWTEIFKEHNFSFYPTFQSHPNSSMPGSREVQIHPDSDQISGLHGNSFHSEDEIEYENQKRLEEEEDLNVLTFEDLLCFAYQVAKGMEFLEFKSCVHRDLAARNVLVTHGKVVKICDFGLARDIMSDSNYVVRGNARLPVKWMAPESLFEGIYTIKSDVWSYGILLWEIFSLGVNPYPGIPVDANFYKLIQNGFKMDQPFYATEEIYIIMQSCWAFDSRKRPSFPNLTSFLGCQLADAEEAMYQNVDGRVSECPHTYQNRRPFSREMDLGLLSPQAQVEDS
Protocol: The FLT3 assay was conducted as previously described. Briefly, GST-FLT3-KD^WT containing the FLT3 kinase catalytic domain (residues Tyr567-Ser993) was expressed in Sf9 insect cells transfected with the baculovirus containing pBac-PAK8-GST-FLT3-KD plasmid.
Following incubation, 50 μL Kinase-Glo Plus Reagent (Promega, Madison, WI, USA) was added, and the mixture was incubated at 25°C for 20 min. A 70 μL aliquot of each reaction mixture was transferred to a black microliter plate, and luminescence was measured on a Wallac Vector 1420 multilabel counter (PerkinElmer, Shelton, CT, USA).

KIT^V559D,V654A = KIT^V559D,V654A (Homo sapiens, UniProt P10721, V559D/V654A); assay: KINOMEScan, KIT V559D,V654A; conditions: read-out: KIT^V559D,V654A % control
FLT3^ITD = assay: KINOMEScan, FLT3 ITD; conditions: 1000 nM
Aqueous solubility = format: physicochemical
MV4-11 tumor xenograft = assay: MV4-11 subcutaneous xenograft model; format: in vivo; conditions: nude mice, iv 1, 3 or 10 mg/kg days 1–5 and 8–12; hydrochloride salt; p < 0.05
Protocol: Based on the potent in vitro anti-proliferative activity of BPR1K871, it was planned to investigate the in vivo efficacy. […] Subsequently, based on the PK study, we evaluated the acute toxicity of BPR1K871 in ICR mice (n = 3) by iv administration. […] Next, the antitumor activity of BPR1K871 was evaluated through IV route in MOLM-13 and MV4-11 xenograft models (Figure 5). For this, nude mice were inoculated subcutaneously with MOLM-13 and MV4-11 cells in the left flank. […] For MOLM-13 model, BPR1K871 was injected intravenously at 10 mg/kg daily for 5 days (on days 1–5); also BPR1K871 was intravenously administrated at 3 and 1 mg/kg once a day for two continuous weeks (on days 1–5 and 8–12). For MV4-11 model, BPR1K871 was intravenously administrated at 10, 3 and 1 mg/kg once a day for two continuous weeks (on days 1–5 and 8–12).

Chain of KIT^V559D,V654A (P10721 26-976 V559D/V654A): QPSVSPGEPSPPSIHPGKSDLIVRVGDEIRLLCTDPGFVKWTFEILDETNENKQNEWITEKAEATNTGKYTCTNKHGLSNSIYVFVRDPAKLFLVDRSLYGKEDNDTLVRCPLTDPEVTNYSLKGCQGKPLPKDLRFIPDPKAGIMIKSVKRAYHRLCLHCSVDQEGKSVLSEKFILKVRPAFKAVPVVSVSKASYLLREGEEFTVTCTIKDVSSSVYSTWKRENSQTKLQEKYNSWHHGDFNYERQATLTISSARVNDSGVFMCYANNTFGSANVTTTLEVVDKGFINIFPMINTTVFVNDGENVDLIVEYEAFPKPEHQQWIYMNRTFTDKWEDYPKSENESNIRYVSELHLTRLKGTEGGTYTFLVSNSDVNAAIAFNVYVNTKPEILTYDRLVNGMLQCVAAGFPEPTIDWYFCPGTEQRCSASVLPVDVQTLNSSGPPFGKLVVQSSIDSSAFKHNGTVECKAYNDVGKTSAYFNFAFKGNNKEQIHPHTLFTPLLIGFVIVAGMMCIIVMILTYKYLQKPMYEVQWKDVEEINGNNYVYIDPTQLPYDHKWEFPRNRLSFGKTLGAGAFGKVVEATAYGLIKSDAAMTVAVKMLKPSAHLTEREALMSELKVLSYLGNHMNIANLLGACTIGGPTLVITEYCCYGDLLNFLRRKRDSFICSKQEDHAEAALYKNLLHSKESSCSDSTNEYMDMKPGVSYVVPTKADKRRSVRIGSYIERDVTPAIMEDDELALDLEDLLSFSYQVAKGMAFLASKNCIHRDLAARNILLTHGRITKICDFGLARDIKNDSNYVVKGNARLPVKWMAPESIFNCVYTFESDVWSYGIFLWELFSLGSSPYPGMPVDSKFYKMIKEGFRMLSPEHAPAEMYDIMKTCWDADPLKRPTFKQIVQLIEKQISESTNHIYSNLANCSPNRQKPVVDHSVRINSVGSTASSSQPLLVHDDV
Description for Mia-PaCa2 tumors: For this, COLO205 and Mia-PaCa2 xenograft models were established through inoculating nude mice subcutaneously with corresponding cancer cells. When the tumor size reached approximately 200 mm^3, the hydrochloride salt of BPR1K871 dissolved in the formulation was intravenously administered to suppress the growth of the subcutaneously xenografted tumors.
Nude mice (n = 8–9 per group) were inoculated subcutaneously with Mia-PaCa2 (1 × 10^6 per flank) or COLO205 cells (1 × 10^6 per flank). When the tumor size reached ∼200 mm^3, animals were grouped and treated with BPR1K871 at 20 mg/kg dose in a 2-week treatment period as indicated. […] Tumor volumes were measured and calculated with the formula length × width^2/2 after initiation of treatments. Tumor size and animal body weight were measured twice a week after tumor cell inoculation. The significant difference between drug treatment and vehicle control were analyzed using one-way ANOVA and Student-Newman-Keuls test. The level of statistical significance was set at P<0.05.

CN(C)CCCOc1ccc2c(NCCc3cnc(NC(=O)Nc4cccc(Cl)c4)s3)ncnc2c1 [BPR1K871, 1-(3-Chlorophenyl)-3-(5-(2-((7-(3-(dimethylamino)propoxy)quinazolin-4-yl)amino)ethyl)thiazol-2-yl)urea]
TGI ± SD (Mia-PaCa2 tumors; Mia-PaCa2, 20 mg/kg iv once a day, days 1–5 and 8–12, day 29, n = 9): 91 ± 10% | body weight loss (Mia-PaCa2 tumors; Mia-PaCa2 model, 20 mg/kg iv): ≤ 15% | mortality during the study (Mia-PaCa2 tumors; Mia-PaCa2 model, 20 mg/kg iv): no mice died | TGI ± SD (COLO205 tumors; COLO205, 20 mg/kg iv once a day, days 1–5 and 8–12, day 15, n = 8): 93 ± 9% | body weight loss (COLO205 tumors; COLO205 model, 20 mg/kg iv): ≤ 15% | mortality during the study (COLO205 tumors; COLO205 model, 20 mg/kg iv): no mice died | microsomal stability, remaining at 30 min [1]: > 80% | EC50 (HCC827 cells): 0.257 µM | IC50 (AURKA): 0.022 µM | IC50 (FLT3): 0.019 µM | remaining binding at 1 µM (KIT^V559D,V654A): < 4% | FLT3^ITD % control (FLT3^ITD): < 5.2 % control | solubility (Aqueous solubility; in water): 0.124 µg/mL (≈ 0.236 µM) | improvement of aqueous solubility in pH ≤ 5.2 buffer solution compared to water (Aqueous solubility; pH ≤ 5.2 buffer solution vs water): up to 4000 fold | growth / volume of MV4-11 tumor xenograft vs vehicle (MV4-11 tumor xenograft): significantly reduced; also recorded: inhibited
